Laboratory results reported in publication PMC11755562, “Peptide Inhibitor Assay for Allocating Functionally Important Accessible Sites Throughout a Protein Chain: Restriction Endonuclease EcoRI as a Model Protein System” (BioTech, 2024).
“Also recorded” adds a separate entry of the source.

What was measured:
EcoRI [1] = target: T1, EcoRI (Escherichia coli, UniProt P00642); test: Peptide inhibitor assay (PIA): EcoRI digestion of pCRII-TOPO-OR23 plasmid, fluorescence intensity of the excised OR23 band on agarose gel; format: biochemical; conditions: for level of inhibitory effect on EcoRI (in words) / inhibitory effect compared with the original peptide (in words) / significance of inhibition of EcoRI activity versus no peptide / relative fluorescence intensity of excised OR23 fragment: 3 h; for level of inhibitory effect on EcoRI (in words): EcoRI:peptide 1:500, relative fluorescence intensity; for inhibitory effect compared with the original peptide (in words): EcoRI:peptide 1:500, randomized peptides by Student's t-test versus each endogenous BP; for significance of inhibition of EcoRI activity versus no peptide: EcoRI:peptide 1:500, Dunnett's test versus no peptide; for relative fluorescence intensity of excised OR23 fragment: relative to no peptide, EcoRI:peptide 1:500 molar ratio, 37 °C, 0.015 mM Mg2+, mean of n = 3; for inhibitory effect, fluorescence intensity versus incubation time (in words): time course until 5 h, EcoRI:peptide 1:500, compared with no peptide
T1 construct: The first M is removed after translation in this protein; purchased New England Biolabs
Protocol: Peptide synthesis was performed by GenScript Japan (Tokyo, Japan). All peptides were confirmed to be more than 75% pure via high-performance liquid chromatography (HPLC) and to have theoretical molecular weights via mass spectrometry (MS). The peptides were dissolved in DMSO (dimethyl sulfoxide) and were prepared at 5.59 × 10^−9 mol/μL (5.59 mM). When 1.0 μL of this peptide mixture was mixed in a tube for the inhibition of EcoRI catalytic activity, the molar ratio of EcoRI to peptide was 1:500. This concentration in molar equivalence was used throughout this study unless otherwise noted.
Purified and concentrated EcoRI (20,000 U/mL, approximately 338 μg/mL, 1.12 × 10^−[…]) was obtained from New England Biolabs (Ipswich, MA, USA). To quantify and visualize the inhibitory effects of the peptides, the enzymatic reaction conditions were set so that at least three hours of incubation were required to completely digest the substrate plasmid DNA with EcoRI. To do so, we used a low Mg^2+ concentration (0.015 mM) in the reaction mixture in contrast to the optimum concentration of Mg^2+ for EcoRI (10 mM).
(§1) All master solutions and samples were prepared on ice. A single reaction tube contained the following common ingredients: autoclaved DNase-free RNase-free deionized H2O (12.5 μL) (Nippon Gene), 10× NE Buffer Mg^2+-free (2.0 μL), pCRII-TOPO-OR23 plasmid DNA (2.0 μL of 40 ng/μL solution), MgCl2 (1.5 μL of 0.20 mM solution), and EcoRI (1.0 μL). A master solution containing these ingredients without DMSO or a peptide was first prepared for the number of sample tubes. The master solution was aliquoted into 1.5 mL spin tubes (19.0 μL per tube). Then, 1.0 μL of DMSO or a peptide sample was added, and the mixture was incubated at 37 °C. A negative control with DMSO but without a peptide (“no peptide” control) was run in every assay. When the digestion efficiency was compared, another negative control with autoclaved DNase-free RNase-free H2O without EcoRI was prepared. After the reaction, the samples were quickly cooled on ice for ten minutes and then stored at −80 °C until agarose gel electrophoresis. The above protocol was conducted for all peptides (including BP19.5, BP19.5N, and BP19.5C) used in the present study unless otherwise noted.
To quantify EcoRI activity after incubation of a reaction mixture, digested pCRII-TOPO-OR23 plasmid DNA was examined via agarose gel electrophoresis. We first prepared a 25 mL solution of 1.0% agarose (Nippon Gene) in TAE (Tris-acetate-EDTA) buffer (Promega, Madison, WI, USA) to produce an agarose gel. An ethidium bromide solution (0.5 μL of 10 mg/mL) (Promega) was added before gelation. After incubation with EcoRI, the fluorescence intensity of the band of the excised OR23 fragment was measured via an ImageQuant LAS4000 (GE Healthcare Japan, Tokyo, Japan) with the following conditions: “Exposure Type”: Precision; “Exposure Time”: Manual 1/8 sec; “Sensitivity/Resolution”: Standard; and “Fluorescent Method”: Epi illumination; EtBr; UV (Trans UV) light; 6-5DF50 Filter; and F2.8 Iris.
For statistical analyses, Student’s t-test (unpaired and bi-sided), Dunnett’s test, and Pearson correlation analysis were performed via Microsoft Excel (Office 365) and JSTAT (Yokohama, Japan). The Dunnett’s test was performed for each experimental group that was examined simultaneously in the laboratory, in comparison to the “no peptide” control group that was examined simultaneously. The repeated measure mode of the Dunnett’s test was used on the assumption that there was no interaction between samples.

EcoRI [2] = target: T1, EcoRI; test: Nonspecific nuclease activity of EcoRI reaction mixture with peptide (plasmid DNA degradation); format: biochemical; conditions: EcoRI plus peptide 1:500, 3 h; n = 3
Protocol: A recombinant plasmid, pCRII-TOPO (Invitrogen, Waltham, MA, USA), containing a PCR fragment of the full-length cDNA (978 bp) of the mouse odorant receptor OR23 [82, 83, 84, 85, 86] at the EcoRI cloning site (GAATTC) was used as a DNA substrate for EcoRI. […] This pCRII-TOPO-OR23 plasmid was prepared from TOP10F’ Escherichia coli (Invitrogen) using ATP Plasmid Mini Kit (ATP Biotech, Taipei, ROC). The plasmid solution was prepared at 40 ng/μL by adding autoclaved DNase-free RNase-free deionized H2O (Nippon Gene, Tokyo, Japan). The DNA concentrations were measured with a Qubit fluorometer (Invitrogen).
as §1
This reaction mixture containing EcoRI and BP19.5 appeared to degrade the plasmid DNA entirely. […] The DNA concentration at 3 h was 3.297 ± 0.006 ng/μL without any peptide in the reaction mixture and 0.332 ± 0.003 ng/μL with BP19.5, indicating a statistically significant difference (n = 3; unpaired bi-sided Student’s t-test; p = 1.6 × 10^−11). […] Therefore, BP19.5 and its derivatives are likely to cause EcoRI to become a nonspecific nuclease. In other words, BP19.5 was likely a specificity/activity modifier of EcoRI instead of an inhibitor.

T1 sequence (P00642 2-277): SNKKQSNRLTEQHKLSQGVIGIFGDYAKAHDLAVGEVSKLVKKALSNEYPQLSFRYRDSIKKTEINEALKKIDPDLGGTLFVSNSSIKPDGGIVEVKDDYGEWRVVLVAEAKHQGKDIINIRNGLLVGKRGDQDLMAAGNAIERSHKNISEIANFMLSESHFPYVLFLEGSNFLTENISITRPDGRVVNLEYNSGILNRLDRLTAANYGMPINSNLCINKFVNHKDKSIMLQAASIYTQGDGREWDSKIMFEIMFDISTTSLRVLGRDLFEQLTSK

In the case of AAGNAI [BP13M], the “level of inhibitory effect on EcoRI (in words)” value (“level of inhibitory effect” below) (EcoRI [1]; n = 3) is reported as “noninhibitory”.

With AANYGMPINSNL [BP19] the “level of inhibitory effect” value (EcoRI [1]; n = 3) was “did not show high inhibition” and the “plasmid DNA degradation / nonspecific nuclease induction (agarose gel electrophoresis, in words)” value (EcoRI [2]) was “did not have such an induction ability”.

AGRKQEVHAVWVEL [BP10R2] was tested, and the “inhibitory effect compared with the original peptide (in words)” value (EcoRI [1]; n = 3) was “as inhibitory as the original peptides”.

With AVGEVSKLVKKALS [BP4] the “significance of inhibition of EcoRI activity versus no peptide” value (EcoRI [1]; n = 3) was “significantly inhibitory”.

With DGLTPFSDVLGI [BP7R2] the “inhibitory effect compared with the original peptide (in words)” value (EcoRI [1]; n = 3) was “significantly less inhibitory”.

For DLMAAGNAIERS [BP13], the “level of inhibitory effect” value (EcoRI [1]; n = 3) was “not very inhibitory”.

With EAKHQGKDIIN [BP10.5] the “level of inhibitory effect” value (EcoRI [1]; n = 3) was “not very inhibitory”.

EALDIAMGRNSA [BP13R1] was tested, and the “inhibitory effect compared with the original peptide (in words)” value (EcoRI [1]; n = 3) was “significantly more inhibitory”.

EGSNFLTENISI [BP16] was tested, and the “level of inhibitory effect” value (EcoRI [1]; n = 3) was “highly inhibitory; also recorded: most effective” and the “relative fluorescence intensity of excised OR23 fragment” value (EcoRI [1]) was “less than 0.3”.

With EIANFM [BP14C] the “inhibitory effect compared with the original peptide (in words)” value (EcoRI [1]; n = 3) was “as inhibitory as the original BP14”.

EQHKLSQGVIGI [BP2] was tested, and the “significance of inhibition of EcoRI activity versus no peptide” value (EcoRI [1]; n = 3) was “significantly inhibitory”, the “level of inhibitory effect” value (EcoRI [1]; n = 3) was “highly inhibitory; also recorded: most effective” and the “relative fluorescence intensity of excised OR23 fragment” value (EcoRI [1]) was “less than 0.3”.

With EWRVVL [BP10N] the “level of inhibitory effect” value (EcoRI [1]; n = 3) was “noninhibitory”.

EWRVVLVAEAKHQG [BP10] was tested, and the “level of inhibitory effect” value (EcoRI [1]; n = 3) was “not very inhibitory”.

For FRYRDSIKKTEI [BP5.5], the “level of inhibitory effect” value (EcoRI [1]; n = 3) was “least inhibitory; also recorded: noninhibitory”.

In the case of FVSNSSIKPDGG [BP8], the “level of inhibitory effect” value (EcoRI [1]; n = 3) is reported as “noninhibitory” and the “inhibitory effect, fluorescence intensity versus incubation time (in words)” value (EcoRI [1]; n = 3) is reported as “relatively low inhibitory effects”.

With GIVEVK [BP9M] the “inhibitory effect compared with the original peptide (in words)” value (EcoRI [1]; n = 3) was “more inhibitory than the original”.

In the case of GREWDSKIMFEIMF [BP22], the “significance of inhibition of EcoRI activity versus no peptide” value (EcoRI [1]; n = 3) is reported as “significantly inhibited EcoRI activity”, the “level of inhibitory effect” value (EcoRI [1]; n = 3) is reported as “especially notable” and the “inhibitory effect, fluorescence intensity versus incubation time (in words)” value (EcoRI [1]; n = 3) is reported as “relatively high inhibitory effects”. For the same substance, the “concentration dependence of the inhibitory effect” value (EcoRI [1]; ×5 to ×500 molar equivalence to EcoRI, fixed time point 3 h, n = 3) was “concentration dependent”.

With IDPDLG [BP7N] the “level of inhibitory effect” value (EcoRI [1]; n = 3) was “noninhibitory”.

In the case of IKKTEI [BP6N], the “inhibitory effect compared with the original peptide (in words)” value (EcoRI [1]; n = 3) is reported as “as inhibitory as the original BP6”.

IKKTEINEALKKID [BP6] was tested, and the “significance of inhibition of EcoRI activity versus no peptide” value (EcoRI [1]; n = 3) was “significantly inhibited EcoRI activity” and the “level of inhibitory effect” value (EcoRI [1]; n = 3) was “especially notable”.

KPDGGIVEVKDDYG [BP9] was tested, and the “level of inhibitory effect” value (EcoRI [1]; n = 3) was “not very inhibitory”.

For KRGDQDLMAAG [BP12.5], the “level of inhibitory effect” value (EcoRI [1]; n = 3) was “not very inhibitory”.

LAMRGASIADEN [BP13R2] was tested, and the “inhibitory effect compared with the original peptide (in words)” value (EcoRI [1]; n = 3) was “significantly less inhibitory”.

With LDRLTAANYGM [BP18.5] the “level of inhibitory effect” value (EcoRI [1]; n = 3) was “noninhibitory”.
